Source: ChEMBL document CHEMBL5291721, “A preclinical secondary pharmacology resource illuminates target-adverse drug reaction associations of marketed drugs” (Nat Commun, 2023)

Assays:
[1] = biological target: T1, Peroxisome proliferator-activated receptor alpha (Homo sapiens, UniProt Q07869); format: functional
T1 sequence (Q07869 whole entry): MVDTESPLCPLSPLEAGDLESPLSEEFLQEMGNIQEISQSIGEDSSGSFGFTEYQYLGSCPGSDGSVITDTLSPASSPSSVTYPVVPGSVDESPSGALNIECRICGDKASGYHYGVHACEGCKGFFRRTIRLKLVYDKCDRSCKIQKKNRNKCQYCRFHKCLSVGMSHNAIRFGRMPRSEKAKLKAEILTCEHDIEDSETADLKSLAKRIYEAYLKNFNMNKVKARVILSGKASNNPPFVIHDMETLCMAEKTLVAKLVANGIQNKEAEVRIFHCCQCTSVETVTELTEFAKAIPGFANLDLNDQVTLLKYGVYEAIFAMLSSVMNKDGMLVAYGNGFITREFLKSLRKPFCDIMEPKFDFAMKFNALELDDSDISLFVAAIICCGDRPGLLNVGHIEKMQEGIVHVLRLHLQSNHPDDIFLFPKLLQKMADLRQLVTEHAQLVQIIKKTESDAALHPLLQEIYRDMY

[2] = biological target: T1, Peroxisome proliferator-activated receptor alpha; format: functional; remark: listed apart in the source
[3] = biological target: T2, Prostaglandin G/H synthase 1 (Rattus norvegicus, UniProt Q63921); format: functional
T2 sequence (Q63921 whole entry): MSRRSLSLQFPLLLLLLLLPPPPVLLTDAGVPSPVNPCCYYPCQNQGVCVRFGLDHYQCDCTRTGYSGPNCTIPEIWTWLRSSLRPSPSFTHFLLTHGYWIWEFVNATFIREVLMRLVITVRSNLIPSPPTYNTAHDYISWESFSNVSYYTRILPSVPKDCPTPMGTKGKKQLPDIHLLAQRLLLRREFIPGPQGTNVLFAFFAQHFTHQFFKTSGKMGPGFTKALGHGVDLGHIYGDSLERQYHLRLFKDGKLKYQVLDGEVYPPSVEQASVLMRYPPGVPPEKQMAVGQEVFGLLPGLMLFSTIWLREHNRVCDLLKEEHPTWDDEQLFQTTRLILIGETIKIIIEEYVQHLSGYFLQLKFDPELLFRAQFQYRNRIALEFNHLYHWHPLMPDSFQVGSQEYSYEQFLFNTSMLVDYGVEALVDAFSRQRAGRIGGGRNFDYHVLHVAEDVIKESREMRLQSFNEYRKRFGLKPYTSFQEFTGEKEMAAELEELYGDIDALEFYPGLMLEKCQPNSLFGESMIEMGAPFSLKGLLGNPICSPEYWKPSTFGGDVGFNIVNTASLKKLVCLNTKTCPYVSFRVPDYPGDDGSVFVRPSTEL

[4] = biological target: T3, 5-hydroxytryptamine receptor 2B (Homo sapiens, UniProt P41595)
[5] = biological target: Sodium-dependent dopamine transporter (Homo sapiens, UniProt Q01959)
[6] = biological target: Gamma-aminobutyric acid receptor subunit alpha-1/alpha-2/beta-2/gamma-2 (Homo sapiens, UniProt P14867+P18507+P47869+P47870); format: protein-complex assay
Prothrombin = Prothrombin (Homo sapiens, UniProt P00734); format: functional
[7] = biological target: T3, 5-hydroxytryptamine receptor 2B; format: functional, cell-based
Progesterone receptor = biological target: T4, Progesterone receptor (Homo sapiens, UniProt P06401)
T4 sequence (P06401 whole entry): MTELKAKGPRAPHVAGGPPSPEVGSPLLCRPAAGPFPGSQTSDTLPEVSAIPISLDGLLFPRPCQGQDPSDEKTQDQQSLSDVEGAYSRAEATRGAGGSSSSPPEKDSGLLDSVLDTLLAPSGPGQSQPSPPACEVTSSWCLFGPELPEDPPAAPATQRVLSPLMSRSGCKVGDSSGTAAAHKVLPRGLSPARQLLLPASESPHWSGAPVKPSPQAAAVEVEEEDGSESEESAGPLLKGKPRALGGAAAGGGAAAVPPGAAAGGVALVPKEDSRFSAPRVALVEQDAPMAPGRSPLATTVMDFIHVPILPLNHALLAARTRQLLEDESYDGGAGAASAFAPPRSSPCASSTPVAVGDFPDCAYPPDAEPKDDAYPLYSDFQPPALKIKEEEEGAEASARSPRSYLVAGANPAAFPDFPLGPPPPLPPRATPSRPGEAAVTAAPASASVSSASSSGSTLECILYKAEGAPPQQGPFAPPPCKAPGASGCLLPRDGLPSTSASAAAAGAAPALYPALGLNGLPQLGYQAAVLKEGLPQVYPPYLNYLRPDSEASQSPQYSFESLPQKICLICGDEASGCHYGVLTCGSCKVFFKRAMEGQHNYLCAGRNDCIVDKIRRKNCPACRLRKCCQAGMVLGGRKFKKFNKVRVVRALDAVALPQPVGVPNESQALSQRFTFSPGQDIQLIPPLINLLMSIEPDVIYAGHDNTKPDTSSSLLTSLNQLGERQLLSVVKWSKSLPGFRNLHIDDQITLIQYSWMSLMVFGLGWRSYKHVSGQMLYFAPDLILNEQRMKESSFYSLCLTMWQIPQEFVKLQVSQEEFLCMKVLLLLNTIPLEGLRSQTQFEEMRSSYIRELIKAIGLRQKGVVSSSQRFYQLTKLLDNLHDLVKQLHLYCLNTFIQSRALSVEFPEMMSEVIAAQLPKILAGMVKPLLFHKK

Thromboxane A2 receptor = biological target: T5, Thromboxane A2 receptor (Homo sapiens, UniProt P21731); format: functional, cell-based
T5 sequence (P21731 whole entry): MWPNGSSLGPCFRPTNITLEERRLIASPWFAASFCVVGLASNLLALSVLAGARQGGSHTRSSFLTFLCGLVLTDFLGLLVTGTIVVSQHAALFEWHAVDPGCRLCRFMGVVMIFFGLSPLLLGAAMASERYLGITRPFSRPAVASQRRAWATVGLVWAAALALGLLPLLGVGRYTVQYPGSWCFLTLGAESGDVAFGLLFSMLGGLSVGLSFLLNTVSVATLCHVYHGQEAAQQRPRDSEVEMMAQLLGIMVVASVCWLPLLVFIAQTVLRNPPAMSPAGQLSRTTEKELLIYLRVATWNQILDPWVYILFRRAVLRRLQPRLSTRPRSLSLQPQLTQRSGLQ
Also: assay procedure not described here.

T3 sequence (P41595 whole entry): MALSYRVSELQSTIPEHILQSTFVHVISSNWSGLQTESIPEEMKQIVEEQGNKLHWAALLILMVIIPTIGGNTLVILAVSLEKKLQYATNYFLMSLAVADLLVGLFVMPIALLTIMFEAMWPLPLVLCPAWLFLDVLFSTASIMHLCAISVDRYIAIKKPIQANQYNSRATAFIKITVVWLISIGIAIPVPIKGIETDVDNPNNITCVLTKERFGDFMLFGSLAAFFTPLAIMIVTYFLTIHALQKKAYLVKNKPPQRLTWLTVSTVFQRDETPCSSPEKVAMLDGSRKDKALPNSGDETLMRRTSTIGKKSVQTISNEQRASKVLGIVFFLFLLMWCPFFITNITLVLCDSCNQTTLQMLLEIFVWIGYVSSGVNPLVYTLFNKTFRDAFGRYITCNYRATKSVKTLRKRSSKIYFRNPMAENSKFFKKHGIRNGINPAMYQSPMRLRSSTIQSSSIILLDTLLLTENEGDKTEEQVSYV
Sodium-dependent dopamine transporter, sequence (Q01959 whole entry): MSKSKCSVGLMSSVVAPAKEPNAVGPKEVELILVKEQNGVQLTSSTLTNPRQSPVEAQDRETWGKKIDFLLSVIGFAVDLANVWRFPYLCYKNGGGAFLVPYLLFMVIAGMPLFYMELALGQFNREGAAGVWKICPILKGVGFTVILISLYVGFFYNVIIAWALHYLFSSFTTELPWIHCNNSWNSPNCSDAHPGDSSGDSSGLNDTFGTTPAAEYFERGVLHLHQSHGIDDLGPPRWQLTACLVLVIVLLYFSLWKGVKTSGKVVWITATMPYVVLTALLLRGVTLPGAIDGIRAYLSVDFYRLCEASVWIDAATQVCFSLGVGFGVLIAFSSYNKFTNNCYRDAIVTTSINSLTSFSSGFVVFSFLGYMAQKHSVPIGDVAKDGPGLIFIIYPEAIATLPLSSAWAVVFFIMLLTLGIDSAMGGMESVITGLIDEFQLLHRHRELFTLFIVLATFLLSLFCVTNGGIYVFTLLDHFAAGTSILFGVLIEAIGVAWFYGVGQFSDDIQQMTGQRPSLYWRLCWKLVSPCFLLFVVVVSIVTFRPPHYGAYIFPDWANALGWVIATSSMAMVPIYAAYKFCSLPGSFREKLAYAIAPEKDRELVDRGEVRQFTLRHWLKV
Gamma-aminobutyric acid receptor subunit alpha-1/alpha-2/beta-2/gamma-2, sequence (P14867 whole entry): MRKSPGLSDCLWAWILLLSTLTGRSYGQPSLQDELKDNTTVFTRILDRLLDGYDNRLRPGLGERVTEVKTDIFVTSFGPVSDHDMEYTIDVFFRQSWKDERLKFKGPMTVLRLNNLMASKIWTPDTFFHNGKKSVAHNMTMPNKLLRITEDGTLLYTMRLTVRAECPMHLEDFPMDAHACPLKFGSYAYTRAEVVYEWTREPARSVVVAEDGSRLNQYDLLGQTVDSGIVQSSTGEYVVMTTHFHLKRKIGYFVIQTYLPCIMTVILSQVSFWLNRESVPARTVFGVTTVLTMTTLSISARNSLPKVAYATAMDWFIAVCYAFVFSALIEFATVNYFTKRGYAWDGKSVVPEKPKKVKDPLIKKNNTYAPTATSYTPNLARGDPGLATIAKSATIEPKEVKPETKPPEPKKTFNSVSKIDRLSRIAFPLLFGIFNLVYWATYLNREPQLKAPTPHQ
Gamma-aminobutyric acid receptor subunit alpha-1/alpha-2/beta-2/gamma-2, sequence (P47870 whole entry): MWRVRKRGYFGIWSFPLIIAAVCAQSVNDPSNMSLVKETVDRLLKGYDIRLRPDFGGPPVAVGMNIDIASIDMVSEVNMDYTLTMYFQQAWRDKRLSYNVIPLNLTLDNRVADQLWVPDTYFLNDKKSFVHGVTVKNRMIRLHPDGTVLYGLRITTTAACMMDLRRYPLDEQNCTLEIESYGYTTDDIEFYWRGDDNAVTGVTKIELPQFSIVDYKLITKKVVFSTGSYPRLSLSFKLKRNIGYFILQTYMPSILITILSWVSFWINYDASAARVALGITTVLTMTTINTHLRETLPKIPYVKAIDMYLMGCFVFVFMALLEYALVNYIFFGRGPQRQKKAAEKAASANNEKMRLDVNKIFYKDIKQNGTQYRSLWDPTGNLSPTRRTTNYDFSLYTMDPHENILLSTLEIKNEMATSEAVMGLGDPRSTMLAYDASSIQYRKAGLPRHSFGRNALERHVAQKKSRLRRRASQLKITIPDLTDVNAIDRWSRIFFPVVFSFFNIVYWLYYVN
Gamma-aminobutyric acid receptor subunit alpha-1/alpha-2/beta-2/gamma-2, sequence (P18507 whole entry): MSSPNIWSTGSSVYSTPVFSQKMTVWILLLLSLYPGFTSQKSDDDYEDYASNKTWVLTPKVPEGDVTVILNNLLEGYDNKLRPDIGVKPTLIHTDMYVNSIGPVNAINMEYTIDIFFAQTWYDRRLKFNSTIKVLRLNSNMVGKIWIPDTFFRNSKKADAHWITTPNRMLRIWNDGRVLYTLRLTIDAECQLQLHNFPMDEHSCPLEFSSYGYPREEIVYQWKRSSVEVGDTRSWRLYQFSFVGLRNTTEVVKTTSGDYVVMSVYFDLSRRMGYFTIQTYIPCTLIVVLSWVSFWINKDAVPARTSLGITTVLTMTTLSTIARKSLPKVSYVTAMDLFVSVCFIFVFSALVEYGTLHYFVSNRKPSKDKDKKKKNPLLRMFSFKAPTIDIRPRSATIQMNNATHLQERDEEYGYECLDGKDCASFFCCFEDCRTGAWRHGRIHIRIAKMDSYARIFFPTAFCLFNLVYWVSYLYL
Gamma-aminobutyric acid receptor subunit alpha-1/alpha-2/beta-2/gamma-2, sequence (P47869 whole entry): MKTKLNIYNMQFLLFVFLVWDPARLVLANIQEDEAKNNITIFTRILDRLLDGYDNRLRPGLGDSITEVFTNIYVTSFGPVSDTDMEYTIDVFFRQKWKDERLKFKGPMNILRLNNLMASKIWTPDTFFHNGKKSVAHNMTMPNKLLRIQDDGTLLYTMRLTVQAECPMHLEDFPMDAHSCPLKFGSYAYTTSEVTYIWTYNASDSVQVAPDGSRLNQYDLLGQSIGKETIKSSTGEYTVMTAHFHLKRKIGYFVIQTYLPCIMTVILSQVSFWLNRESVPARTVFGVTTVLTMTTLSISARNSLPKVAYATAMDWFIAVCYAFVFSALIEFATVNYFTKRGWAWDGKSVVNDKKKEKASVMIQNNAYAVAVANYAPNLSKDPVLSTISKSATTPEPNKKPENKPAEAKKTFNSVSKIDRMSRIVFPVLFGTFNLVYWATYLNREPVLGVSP

Q: For `CCOC(=O)C(C)(C)Oc1ccc(Cl)cc1` [CLOFIBRATE], which AC50 [1] is on record?
A: > 30 µM

Q: And the AC50 [2]?
A: > 30 µM

Q: How did the AC50 [3] turn out when `CCOC(=O)c1ncn2c1CN(C)C(=O)c1cc(F)ccc1-2` [FLUMAZENIL] was run?
A: > 30 µM

Q: How did the AC50 [4] turn out when `Fc1ccc([C@@H]2CCNC[C@H]2COc2ccc3c(c2)OCO3)cc1` [PAROXETINE] was run?
A: 10.6 µM

Q: What does the source list for `CCN(CC)CCCC(C)Nc1c2ccc(Cl)cc2nc2ccc(OC)cc12` (stereo not given) [QUINACRINE]?
A: AC50 [5]: 18.4 µM; AC50 [6]: > 30 µM; AC50 (Prothrombin): > 30 µM; AC50 [7]: > 30 µM; AC50 (Progesterone receptor): > 10 µM; AC50 (Thromboxane A2 receptor): > 1 µM
